Experimental data taken from ChEMBL document CHEMBL1145250, “Discovery of 4-(dimethylamino)quinazolines as potent and selective antagonists for the melanin-concentrating hormone receptor 1” (Bioorg Med Chem Lett, 2005).

How the values were obtained:
[1] = target: Alpha-2A adrenergic receptor (Homo sapiens, UniProt P08913); assay: Inhibitory activity against constitutively activated human Alpha-2A adrenergic receptor transiently expressed in COS-1 cells using [3H]MK-912; type: cell-based
[2] = target: T1, Melanin-concentrating hormone receptor 1 (Homo sapiens, UniProt Q99705); assay: Inhibitory activity against mutated constitutively activated human Melanin concentrating hormone receptor 1 (CA-MCH-R1) stably expressed in HEK293 cells using [125I](Phe13, Tyr19) MCH; type: cell-based
Target sequence in this assay (Q99705 whole entry, looked up): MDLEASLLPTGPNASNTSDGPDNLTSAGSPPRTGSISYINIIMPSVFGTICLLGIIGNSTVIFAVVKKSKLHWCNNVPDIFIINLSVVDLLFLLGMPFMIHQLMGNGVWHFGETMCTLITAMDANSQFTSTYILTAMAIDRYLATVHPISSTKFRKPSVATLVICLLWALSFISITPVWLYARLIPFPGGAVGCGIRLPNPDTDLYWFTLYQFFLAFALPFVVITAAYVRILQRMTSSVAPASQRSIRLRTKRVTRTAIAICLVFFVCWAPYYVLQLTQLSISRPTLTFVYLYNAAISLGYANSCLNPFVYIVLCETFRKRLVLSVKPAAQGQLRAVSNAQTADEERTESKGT

[3] = target: T2, Neuropeptide Y receptor type 5 (Homo sapiens, UniProt Q15761); assay: Inhibitory activity against constitutively activated human Neuropeptide Y receptor Y5 transiently expressed in COS-1 cells using [125I]PYY; type: cell-based
T2 sequence (Q15761 whole entry): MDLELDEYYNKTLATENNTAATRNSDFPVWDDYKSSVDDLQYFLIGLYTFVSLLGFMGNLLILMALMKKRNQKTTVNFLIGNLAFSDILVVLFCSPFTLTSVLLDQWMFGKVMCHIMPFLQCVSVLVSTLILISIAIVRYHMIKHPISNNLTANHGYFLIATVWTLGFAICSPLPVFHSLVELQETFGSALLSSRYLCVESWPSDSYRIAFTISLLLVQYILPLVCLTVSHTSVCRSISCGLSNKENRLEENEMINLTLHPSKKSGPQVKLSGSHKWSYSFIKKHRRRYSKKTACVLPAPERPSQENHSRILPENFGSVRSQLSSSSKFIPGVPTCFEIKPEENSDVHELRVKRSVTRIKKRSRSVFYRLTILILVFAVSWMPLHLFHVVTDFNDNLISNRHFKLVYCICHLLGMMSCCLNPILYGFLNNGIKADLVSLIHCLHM

[4] = target: T1, Melanin-concentrating hormone receptor 1; assay: Inhibitory activity against human wild type Melanin concentrating hormone receptor 1 (CA-MCH-R1) stably expressed in HEK293 cells using [125I](Phe13, Tyr19) MCH (n=3); type: cell-based
Target sequence in this assay (Q99705 whole entry): as the sequence (Q99705 whole entry, looked up) above

[5] = target: T1, Melanin-concentrating hormone receptor 1; assay: Inhibitory activity against mutated constitutively activated human Melanin concentrating hormone receptor 1 (CA-MCH-R1) stably expressed in HEK293 cells using [125I](Phe13, Tyr19) MCH (n=8); type: cell-based
Target sequence in this assay (Q99705 whole entry, looked up): as the sequence (Q99705 whole entry, looked up) above

[6] = target: T1, Melanin-concentrating hormone receptor 1; assay: Inhibitory activity against human constitutively activated Melanin concentrating hormone receptor 1 induced calcium flux stably expressed in HEK293 cells (n=6)
Target sequence in this assay (Q99705 whole entry): as the sequence (Q99705 whole entry, looked up) above

Alpha-2A adrenergic receptor, sequence (P08913 whole entry, looked up): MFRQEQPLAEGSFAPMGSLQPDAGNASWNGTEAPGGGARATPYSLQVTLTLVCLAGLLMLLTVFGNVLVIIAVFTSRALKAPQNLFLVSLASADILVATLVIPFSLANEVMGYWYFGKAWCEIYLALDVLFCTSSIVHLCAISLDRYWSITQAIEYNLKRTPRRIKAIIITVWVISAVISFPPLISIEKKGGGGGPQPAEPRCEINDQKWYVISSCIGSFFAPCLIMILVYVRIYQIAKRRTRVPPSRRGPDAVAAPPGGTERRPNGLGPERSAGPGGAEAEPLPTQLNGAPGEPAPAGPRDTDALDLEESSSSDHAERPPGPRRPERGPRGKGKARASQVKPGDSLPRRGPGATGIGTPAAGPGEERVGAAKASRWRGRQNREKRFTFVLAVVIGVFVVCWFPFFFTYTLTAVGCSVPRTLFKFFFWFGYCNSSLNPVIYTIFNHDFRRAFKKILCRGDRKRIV

IC50 [1] | IC50 [2] | IC50 [3] | IC50 [4] | IC50 [5] | IC50 [6] | SMILES
5.6 nM | 6000 nM | 3000 nM |  |  |  | CN(C)c1nc(NCC2CCN(S(=O)(=O)c3ccc(Br)cc3OC(F)(F)F)CC2)nc2ccccc12
110 nM | 1500 nM | 150 nM |  |  |  | CN(C)c1nc(NC2CCC(CNS(=O)(=O)c3ccc(Br)cc3OC(F)(F)F)CC2)nc2ccccc12 (stereo not given)
86 nM | > 10000 nM | 41 nM |  |  |  | CN(C)c1nc(NCC2CCC(CNS(C)(=O)=O)CC2)nc2ccccc12 (stereo not given)
170 nM | 250 nM | 8900 nM |  |  |  | CN(C)c1nc(NC2CCN(S(=O)(=O)c3ccc(Br)cc3OC(F)(F)F)CC2)nc2ccccc12
100 nM | 1900 nM | 1.6 nM |  |  |  | Nc1nc(NCC2CCC(CNS(=O)(=O)c3ccc(Br)cc3OC(F)(F)F)CC2)nc2ccccc12 (trans isomer)
7.7 nM |  | 2.7 nM | 200 nM | 160 nM | 140 nM | CN(C)c1nc(NCC2CCC(CNS(=O)(=O)c3ccc(Br)cc3OC(F)(F)F)CC2)nc2ccccc12 (trans isomer)
58 nM | 2900 nM | 4.9 nM |  |  |  | CCCCS(=O)(=O)NCC1CCC(CNc2nc(N(C)C)c3ccccc3n2)CC1 (trans isomer)
47 nM | 2200 nM | 31 nM |  |  |  | CN(C)c1nc(NC2CCC(NS(=O)(=O)c3ccc(Br)cc3OC(F)(F)F)CC2)nc2ccccc12 (trans isomer)
21 nM | 810 nM | 2.5 nM |  |  |  | CN(C)c1nc(NCC2CCC(NS(=O)(=O)c3ccc(Br)cc3OC(F)(F)F)CC2)nc2ccccc12 (trans isomer)
 | 6700 nM |  |  |  |  | CCCCCCCCS(=O)(=O)NCC1CCC(CNc2nc(N(C)C)c3ccccc3n2)CC1 (trans isomer)
140 nM | > 10000 nM | 78 nM |  |  |  | O=S(=O)(NCC1CCC(CNc2ncc3ccccc3n2)CC1)c1ccc(Br)cc1OC(F)(F)F (trans isomer)
 | > 10000 nM |  |  |  |  | CC(C)S(=O)(=O)NCC1CCC(CNc2nc(N(C)C)c3ccccc3n2)CC1 (trans isomer)
 | 3500 nM |  |  |  |  | Nc1nc(NC[C@H]2CC[C@H](CNS(=O)(=O)c3cccc4ccccc34)CC2)nc2ccccc12 [CGP-71683A]
